# Assay results: patent US6355799B1, “Substituted benzene compounds, process for their preparation, and herbicidal and defoliant compositions containing them” (ISK Americas Incorporated, priority 1997, dated 2002)
# Assays:
# Type in all cases: in vivo
# [1] = system: field corn (Zea mays L., var. Dekalb 535, CORN); experiment: Post-emerge test, crop safety; conditions: phytotoxicity rating 0-100 (0 no damage, 100 complete death), 14 days after application
# Summary of the method: (§1)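 Herbicidal damage is scored 0 (none) to 100 (complete plant death) two weeks after a simulated field spray. Rates span 15–1000 g ai/ha, delivered in acetone at 187 l/ha. For post-emergence treatments, plants have 2–3 leaves and the spray carries 0.25% v/v non-ionic surfactant.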
# [2] = system: upland rice (Oryza sp., var. Tebonnet, RICE); experiment: Post-emerge test, crop safety; conditions: phytotoxicity rating 0-100 (0 no damage, 100 complete death), 14 days after application
# Summary of the method: as §1
# [3] = system: field corn (Zea mays L., var. Dekalb 535, CORN); experiment: Pre-emerge test, crop safety; conditions: pre-emerge, rated 14 days after application, 0 = no damage, 100 = complete death
# Summary of the method: as §1
# [4] = system: upland rice (Oryza sp., var. Tebonnet, RICE); experiment: Pre-emerge test, crop safety; conditions: pre-emerge, rated 14 days after application, 0 = no damage, 100 = complete death
# Summary of the method: as §1
# [5] = system: redroot pigweed (Amaranthus retroflexus, AMARE); experiment: Post-emerge test, greenhouse herbicide activity screening; conditions: phytotoxicity rating 0-100 (0 no damage, 100 complete death), 14 days after application
# Summary of the method: (§2)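 Compounds in acetone were track-sprayed at 15–1000 g ai/ha: pre-emergence onto soil sown the previous day, then top-watered to incorporate and later bottom-watered; post-emergence onto 2–3 leaf plants with 0.25% v/v surfactant, bottom-watered only. Ratings on a 0–100 phytotoxicity scale were taken at day 14.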
# [6] = system: lambsquarters (Chenopodium album, CHEAL); experiment: as above; conditions: phytotoxicity rating 0-100 (0 no damage, 100 complete death), 14 days after application
# Summary of the method: as §2
# [7] = system: common ragweed (Ambrosia artemisizfolia L., AMBEL); experiment: as above; conditions: phytotoxicity rating 0-100 (0 no damage, 100 complete death), 14 days after application
# Summary of the method: as §2
# [8] = system: green foxtail (Setaria viridis, SETVI); experiment: as above; conditions: phytotoxicity rating 0-100 (0 no damage, 100 complete death), 14 days after application
# Summary of the method: as §2
# [9] = system: sicklepod (Cassia obtusifolia, CASOB); experiment: as above; conditions: phytotoxicity rating 0-100 (0 no damage, 100 complete death), 14 days after application
# Summary of the method: as §2
# [10] = system: ivyleaf morningglory (Ipomoea hederacea, IPOHE); experiment: as above; conditions: phytotoxicity rating 0-100 (0 no damage, 100 complete death), 14 days after application
# Summary of the method: as §2
# [11] = system: velvetleaf (Abutilon theophrasti, ABUTH); experiment: as above; conditions: phytotoxicity rating 0-100 (0 no damage, 100 complete death), 14 days after application
# Summary of the method: as §2
# [12] = system: large crabgrass (Digitaria sanguinalis, DIGSA); experiment: as above; conditions: phytotoxicity rating 0-100 (0 no damage, 100 complete death), 14 days after application
# Summary of the method: as §2
# [13] = system: johnsongrass (Sorghum halepense, SORHA); experiment: as above; conditions: phytotoxicity rating 0-100 (0 no damage, 100 complete death), 14 days after application
# Summary of the method: as §2
# [14] = system: barnyardgrass (Echinochloa crus-galli, ECHCG); experiment: as above; conditions: phytotoxicity rating 0-100 (0 no damage, 100 complete death), 14 days after application
# Summary of the method: as §2
# [15] = system: lambsquarters (Chenopodium album, CHEAL); experiment: Pre-emerge test, greenhouse herbicide activity screening; conditions: pre-emerge, rated 14 days after application, 0 = no damage, 100 = complete death
# Summary of the method: as §1
# [16] = system: green foxtail (Setaria viridis, SETVI); experiment: as above; conditions: pre-emerge, rated 14 days after application, 0 = no damage, 100 = complete death
# Summary of the method: as §1
# [17] = system: sicklepod (Cassia obtusifolia, CASOB); experiment: as above; conditions: pre-emerge, rated 14 days after application, 0 = no damage, 100 = complete death
# Summary of the method: as §1
# [18] = system: ivyleaf morningglory (Ipomoea hederacea, IPOHE); experiment: as above; conditions: pre-emerge, rated 14 days after application, 0 = no damage, 100 = complete death
# Summary of the method: as §1
# [19] = system: velvetleaf (Abutilon theophrasti, ABUTH); experiment: as above; conditions: pre-emerge, rated 14 days after application, 0 = no damage, 100 = complete death
# Summary of the method: as §1
# [20] = system: large crabgrass (Digitaria sanguinalis, DIGSA); experiment: as above; conditions: pre-emerge, rated 14 days after application, 0 = no damage, 100 = complete death
# Summary of the method: as §1
# [21] = system: johnsongrass (Sorghum halepense, SORHA); experiment: as above; conditions: pre-emerge, rated 14 days after application, 0 = no damage, 100 = complete death
# Summary of the method: as §1
# [22] = system: barnyardgrass (Echinochloa crus-galli, ECHCG); experiment: as above; conditions: pre-emerge, rated 14 days after application, 0 = no damage, 100 = complete death
# Summary of the method: as §1
# [23] = system: redroot pigweed (Amaranthus retroflexus, AMARE); experiment: as above; conditions: pre-emerge, rated 14 days after application, 0 = no damage, 100 = complete death
# Summary of the method: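 Rating: 0–100 visual injury, 14 DAA. Application: acetone, 187 l/ha, 15–1000 g ai/ha, flat-fan track sprayer with nozzle 40–45 cm above soil or canopy. Post-emerge runs used 0.25% v/v surfactant on 2–3 leaf plants.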
smiles,measurement,setting,value
"COc1c(Cl)cc(F)c(-n2c(=O)cc(C(F)(F)F)n(C)c2=O)c1N=CN(C)C [Compound 1-31, 3-[4-chloro-2-(dimethylaminomethynyl)imino-6-fluoro-3-methoxyphenyl]-1-methyl-6-trifluoromethyl-2,4(1H, 3H)-pyrimidinedione]",Post-emerge Herbicidal Activity CORN (crop damage),[1]; 63 g ai/ha,0
same,Post-emerge Herbicidal Activity CORN (crop damage),[1]; 250 g ai/ha,0
same,Post-emerge Herbicidal Activity RICE (crop damage),[2]; 63 g ai/ha,0
same,Post-emerge Herbicidal Activity RICE (crop damage),[2]; 250 g ai/ha,10
same,"Pre-emerge crop damage CORN (phytotoxicity rating, scale 0-100)",[3]; 63 g ai/ha,0
same,"Pre-emerge crop damage CORN (phytotoxicity rating, scale 0-100)",[3]; 250 g ai/ha,50
same,"Pre-emerge crop damage RICE (phytotoxicity rating, scale 0-100)",[4]; 63 g ai/ha,0
same,"Pre-emerge crop damage RICE (phytotoxicity rating, scale 0-100)",[4]; 250 g ai/ha,10
same,Post-emerge Herbicidal Activity AMARE,[5]; 63 g ai/ha,10
same,Post-emerge Herbicidal Activity AMARE,[5]; 250 g ai/ha,30
same,Post-emerge Herbicidal Activity CHEAL,[6]; 63 g ai/ha,0
same,Post-emerge Herbicidal Activity CHEAL,[6]; 250 g ai/ha,40
same,Post-emerge Herbicidal Activity AMBEL,[7]; 63 g ai/ha,0
same,Post-emerge Herbicidal Activity AMBEL,[7]; 250 g ai/ha,0
same,Post-emerge Herbicidal Activity SETVI,[8]; 63 g ai/ha,0
same,Post-emerge Herbicidal Activity SETVI,[8]; 250 g ai/ha,0
same,Post-emerge Herbicidal Activity CASOB,[9]; 63 g ai/ha,0
same,Post-emerge Herbicidal Activity CASOB,[9]; 250 g ai/ha,0
same,Post-emerge Herbicidal Activity IPOHE,[10]; 63 g ai/ha,10
same,Post-emerge Herbicidal Activity IPOHE,[10]; 250 g ai/ha,50
same,Post-emerge Herbicidal Activity ABUTH,[11]; 63 g ai/ha,20
same,Post-emerge Herbicidal Activity ABUTH,[11]; 250 g ai/ha,50
same,Post-emerge Herbicidal Activity DIGSA,[12]; 63 g ai/ha,0
same,Post-emerge Herbicidal Activity DIGSA,[12]; 250 g ai/ha,0
same,Post-emerge Herbicidal Activity SORHA,[13]; 63 g ai/ha,0
same,Post-emerge Herbicidal Activity SORHA,[13]; 250 g ai/ha,0
same,Post-emerge Herbicidal Activity ECHCG,[14]; 63 g ai/ha,0
same,Post-emerge Herbicidal Activity ECHCG,[14]; 250 g ai/ha,0
same,"Pre-emerge Herbicidal Activity CHEAL (phytotoxicity rating, scale 0-100)",[15]; 63 g ai/ha,95
same,"Pre-emerge Herbicidal Activity CHEAL (phytotoxicity rating, scale 0-100)",[15]; 250 g ai/ha,100
same,"Pre-emerge Herbicidal Activity SETVI (phytotoxicity rating, scale 0-100)",[16]; 63 g ai/ha,50
same,"Pre-emerge Herbicidal Activity SETVI (phytotoxicity rating, scale 0-100)",[16]; 250 g ai/ha,100
same,"Pre-emerge Herbicidal Activity CASOB (phytotoxicity rating, scale 0-100)",[17]; 63 g ai/ha,70
same,"Pre-emerge Herbicidal Activity CASOB (phytotoxicity rating, scale 0-100)",[17]; 250 g ai/ha,95
same,"Pre-emerge Herbicidal Activity IPOHE (phytotoxicity rating, scale 0-100)",[18]; 63 g ai/ha,0
same,"Pre-emerge Herbicidal Activity IPOHE (phytotoxicity rating, scale 0-100)",[18]; 250 g ai/ha,80
same,"Pre-emerge Herbicidal Activity ABUTH (phytotoxicity rating, scale 0-100)",[19]; 63 g ai/ha,100
same,"Pre-emerge Herbicidal Activity ABUTH (phytotoxicity rating, scale 0-100)",[19]; 250 g ai/ha,100
same,"Pre-emerge Herbicidal Activity DIGSA (phytotoxicity rating, scale 0-100)",[20]; 63 g ai/ha,0
same,"Pre-emerge Herbicidal Activity DIGSA (phytotoxicity rating, scale 0-100)",[20]; 250 g ai/ha,90
same,"Pre-emerge Herbicidal Activity SORHA (phytotoxicity rating, scale 0-100)",[21]; 63 g ai/ha,0
same,"Pre-emerge Herbicidal Activity SORHA (phytotoxicity rating, scale 0-100)",[21]; 250 g ai/ha,90
same,"Pre-emerge Herbicidal Activity ECHCG (phytotoxicity rating, scale 0-100)",[22]; 63 g ai/ha,0
same,"Pre-emerge Herbicidal Activity ECHCG (phytotoxicity rating, scale 0-100)",[22]; 250 g ai/ha,40
same,"Pre-emerge Herbicidal Activity AMARE (phytotoxicity rating, scale 0-100)",[23]; 63 g ai/ha,80
same,"Pre-emerge Herbicidal Activity AMARE (phytotoxicity rating, scale 0-100)",[23]; 250 g ai/ha,100
